From patent publication US20240158438A1, “POLYPEPTIDE COMPOUND AND APPLICATION THEREOF” (CHENGDU SINTANOVO BIOTECHNOLOGY CO., LTD., priority 2021, published 2024) come the findings set out here.

Starred links: 1 amine or outer side, 2 acyl side, 3 side chain; linkers in the order of their positions; H or OH if unused. Non-standard residues stand in square brackets, D forms with d. Residues, ends and D or L forms follow the SMILES beside them. *: point of attachment. Azetidine3carboxylic = O=C(C1CN([*:1])C1)[*:2]; X6 = O=C(C1[C@H]2CC[C@H](C2)N1[*:1])[*:2]; X5 = NC12CC3CC(C1)CC(CC(=O)*)(C3)C2; dBta = N[C@H](Cc1csc2ccccc12)C(=O)O; dCit = NC(=O)NCCC[C@@H](N)C(=O)O; dTle = CC(C)(C)[C@@H](N)C(=O)O; Ac4c(3-oxa) = NC1(C(=O)O)COC1; X1 = N[C@H]1CCC[C@H]1C(=O)*; dNle = CCCC[C@@H](N)C(=O)O; Nle = CCCC[C@H](N)C(=O)O; dAbu = CC[C@@H](N)C(=O)O; Api = NC1(C(=O)O)CCNCC1; X4 = O=C([C@H]1CNCCO1)*; dAze = O=C(O)[C@H]1CCN1

This assay addresses GHSR-1a (Homo sapiens (Human), UniProt Q92847). The experiment in a line: Agonistic activity for GHSR-1a, FLIPR calcium assay. The class given is cell-based. Particulars: agonist activity assay, Flp In-CHO-GHSR Stable Pool cells, FLIPR calcium 6 kit; read-out: The activity (IC50) of polypeptide compounds for GHSR-1a. The text has this: The use of recombinant expression of GHSR provides several advantages; for example, the receptor can be expressed in a determined cell system, so that it is easier to distinguish between the reactions of the compounds with GHSR and the reactions with other receptors. For example, cell lines such as HEK293, COS7 and CHO that […] can be used to express GHSR, and the same cell lines without expression vectors are used as controls.
The activity of GHSR-1a can be measured using different techniques, for example, by detecting the change in the intracellular conformation of GHSR, the change in G-protein coupling activity, and/or the change in intracellular messengers. Techniques such as measuring intracellular Ca^2+ are preferably used to measure the activity of GHSR-1a. Examples of techniques known in the art that can be used to measure Ca^2+ include the use of FLIPR® calcium ion assay kits, among others. The FLIPR® calcium ion assay kits use a calcium ion sensitive indicator and a masking dye to ensure that a researcher carries out high-sensitivity fluorescent screening for G protein-coupled receptors, ion channels and other calcium ion sensitive targets. This experiment used FLIPR calcium 6 assay kits and FLIPR calcium 6-QF assay kits.
• a) Cell line: Flp In-CHO-GHSR Stable Pool; • b) Complete medium: F12K+10% fetal bovine serum+1×penicillin-streptomycin (PS)+600 μg/mL hygromycin B; • c) Cell seeding medium: F12K+10% fetal bovine serum. • d) Assay buffer: 1× HBSS+20 mM HEPES. • e) […] component A: Assay buffer and component A were left at room temperature (RT), 10 mL of buffer was added to component A, and the mixture was vortexed for 1-2 min and stored at −20° C.
• a) Compound stock solutions: the powders from in-house synthesis were made into 10 mM stock solutions in DMSO according to the standard protocol. • b) Compound storage: all compounds in DMSO were stored in room temperature desiccators for short-term storage (at most 4 months). The remaining compounds were left at −20 ° C. for long-term storage.
• a) Flp In-CHO-GHSR Stable Pool cells were cultured in complete medium. • b) The cells were placed in […] cell seeding medium in a 384-well cell culture plate (Corning, 3764) at 7k cells/well and cultured overnight at 37° C. with 5% CO2. • c) 20× component A was thawed at room temperature, diluted with assay buffer to 2×, and left at RT. • d) The Petri dish was taken out of the incubator and equilibrated at room temperature for 10 min. The medium was changed to […]. After the final wash, 20 μL of buffer was kept in each well, 20 μL of 2× component A was then added to each well, and the plate was incubated at 37° C. for 3-5 s. • e) 10 μL of 5× compound was added to the 384-well cell culture plate, and data collection was immediately performed using FLIPR Tetra.
• 1) Z′ factor=1−3×(SDMax+SDMin)/(MeanMax−MeanMin); • 2) CVMax=(SDMax/MeanMax)×100%; • 3) CVMin=(SDMin/MeanMin)×100%; • 4) S/B=Singal/Background; • 5) Calculation formula for IC50: • Y=Bottom+(Top−Bottom)/(1+10^((LogIC50−X)×HillSlope)) • X: log value of compound concentration; Y: Activation % or Inhibition %

GHSR-1a, sequence (Q92847 whole entry): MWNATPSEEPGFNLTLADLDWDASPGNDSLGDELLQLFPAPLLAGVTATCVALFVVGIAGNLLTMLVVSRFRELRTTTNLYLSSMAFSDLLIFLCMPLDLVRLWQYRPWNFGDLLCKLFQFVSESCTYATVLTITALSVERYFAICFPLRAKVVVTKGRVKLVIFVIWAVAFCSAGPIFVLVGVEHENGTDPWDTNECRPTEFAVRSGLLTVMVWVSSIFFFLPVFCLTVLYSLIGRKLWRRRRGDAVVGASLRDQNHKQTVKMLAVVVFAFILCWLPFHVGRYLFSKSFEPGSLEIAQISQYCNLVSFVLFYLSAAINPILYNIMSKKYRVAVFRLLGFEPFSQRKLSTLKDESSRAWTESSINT

One may read the IC50 as the point on the concentration scale where inhibition reaches its midpoint. Take `NC(=O)C1(NC(=O)[C@H](Cc2ccccc2)NC(=O)[C@@H](Cc2c[nH]c3ccccc23)NC(=O)[C@@H](Cc2csc3ccccc23)NC(=O)C2N[C@@H]3CC[C@H]2C3)CCNCC1` (some centres unmarked) [Compound 29] (H-[X6][dBta][dW]F[Api]-NH2): the IC50 was 13.3 nM.
With `CCCC[C@@H](NC(=O)C1(NC(=O)[C@H](Cc2ccccc2)NC(=O)[C@@H](Cc2c[nH]c3ccccc23)NC(=O)[C@@H](Cc2csc3ccccc23)NC(=O)[C@H](N)CC)CCNCC1)C(N)=O` [Compound 83] (H-[dAbu][dBta][dW]F[Api][dNle]-NH2), the IC50 amounted to 12.2 nM.
On to `CCCC[C@@H](N)C(=O)N[C@H](Cc1csc2ccccc12)C(=O)N[C@H](Cc1c[nH]c2ccccc12)C(=O)N[C@@H](Cc1ccccc1)C(=O)N[C@H](CCCCN)C(N)=O` [Compound 49] (H-[dNle][dBta][dW]F[dK]-NH2), for which the half-inhibitory concentration (IC50) came out at 59.4 nM.
In the case of `NCCCC[C@@H](NC(=O)[C@H](Cc1ccccc1)NC(=O)[C@@H](Cc1c[nH]c2ccccc12)NC(=O)[C@@H](Cc1csc2ccccc12)NC(=O)C1N[C@@H]2CC[C@H]1C2)C(N)=O` (some centres unmarked) [Compound 59] (H-[X6][dBta][dW]F[dK]-NH2) it was 16.8 nM; in that of `CC(=O)N[C@H](CCCCN)C(=O)N[C@H](Cc1csc2ccccc12)C(=O)N[C@H](Cc1c[nH]c2ccccc12)C(=O)N[C@@H](Cc1ccccc1)C(=O)NC1(C(N)=O)CCNCC1` [Compound 7] (Ac-[dK][dBta][dW]F[Api]-NH2), 935 nM; in that of `NCCCC[C@@H](N)C(=O)N[C@H](Cc1csc2ccccc12)C(=O)N[C@H](Cc1c[nH]c2ccccc12)C(=O)N[C@@H](Cc1ccccc1)C(=O)N[C@H](CCCCN)C(N)=O` [Compound 34] (H-[dK][dBta][dW]F[dK]-NH2), 78.4 nM.
In the case of `NCCCC[C@@H](NC(=O)[C@H](Cc1ccccc1)NC(=O)[C@@H](Cc1c[nH]c2ccccc12)NC(=O)[C@@H](Cc1csc2ccccc12)NC(=O)[C@H]1CNCCO1)C(N)=O` [Compound 57] (X4-[dBta][dW]F[dK]-NH2) it was 13.4 nM; in that of `NC(=O)C1(NC(=O)[C@H](Cc2ccccc2)NC(=O)[C@@H](Cc2c[nH]c3ccccc23)NC(=O)[C@@H](Cc2csc3ccccc23)NC(=O)CC23CC4CC(CC(N)(C4)C2)C3)CCNCC1` [Compound 28] (X5-[dBta][dW]F[Api]-NH2), 54.1 nM; in that of `NCCCC[C@@H](NC(=O)[C@H](Cc1ccccc1)NC(=O)[C@@H](Cc1c[nH]c2ccccc12)NC(=O)[C@@H](Cc1csc2ccccc12)NC(=O)[C@H]1CCN1)C(N)=O` [Compound 55] (H-[dAze][dBta][dW]F[dK]-NH2), 20 nM.
As to `NC(=O)[C@H](Cc1ccccc1)NC(=O)[C@@H](Cc1c[nH]c2ccccc12)NC(=O)[C@@H](Cc1csc2ccccc12)NC(=O)C1(N)COC1` [Compound 74] (H-[Ac4c(3-oxa)][dBta][dW]F-NH2), the IC50 turned out to be 17.3 nM.
The value for `CC(C)(C)[C@@H](N)C(=O)N[C@H](Cc1csc2ccccc12)C(=O)N[C@H](Cc1c[nH]c2ccccc12)C(=O)N[C@@H](Cc1ccccc1)C(=O)NC1(C(N)=O)CCNCC1` [Compound 17] (H-[dTle][dBta][dW]F[Api]-NH2) was 31.1 nM; that for `CCCC[C@H](N)C(=O)N[C@H](Cc1csc2ccccc12)C(=O)N[C@H](Cc1c[nH]c2ccccc12)C(=O)N[C@@H](Cc1ccccc1)C(=O)NC1(C(N)=O)CCNCC1` [Compound 20] (H-[Nle][dBta][dW]F[Api]-NH2) was 57.4 nM.
Turning to `NC(=O)[C@H](Cc1ccccc1)NC(=O)[C@@H](Cc1c[nH]c2ccccc12)NC(=O)[C@@H](Cc1csc2ccccc12)NC(=O)[C@H]1CCN1` [Compound 75] (H-[dAze][dBta][dW]F-NH2), the IC50 amounted to 12.4 nM.
The value for `CC(=O)NCCCC[C@@H](N)C(=O)N[C@H](Cc1csc2ccccc12)C(=O)N[C@H](Cc1c[nH]c2ccccc12)C(=O)N[C@@H](Cc1ccccc1)C(=O)NC1(C(N)=O)CCNCC1` [Compound 10] (H-[dK](Ac)[dBta][dW]F[Api]-NH2) was 223 nM; that for `NCCCC[C@@H](NC(=O)[C@H](Cc1ccccc1)NC(=O)[C@@H](Cc1c[nH]c2ccccc12)NC(=O)[C@@H](Cc1csc2ccccc12)NC(=O)CN)C(N)=O` [Compound 41] (H-G[dBta][dW]F[dK]-NH2) was 31.4 nM; that for `N=C(N)NCCC[C@@H](NC(=O)[C@H](Cc1ccccc1)NC(=O)[C@@H](Cc1c[nH]c2ccccc12)NC(=O)[C@@H](Cc1csc2ccccc12)NC(=O)C1CNC1)C(N)=O` [Compound 63] (Azetidine3carboxylic-[dBta][dW]F[dR]-NH2) was 27 nM.
In the case of `NC(=O)[C@H](Cc1ccccc1)NC(=O)[C@@H](Cc1c[nH]c2ccccc12)NC(=O)[C@@H](Cc1csc2ccccc12)NC(=O)CC12CC3CC(CC(N)(C3)C1)C2` [Compound 78], the IC50 was determined as 78.4 nM.
Regarding `NC(=O)[C@H](Cc1ccccc1)NC(=O)[C@@H](Cc1c[nH]c2ccccc12)NC(=O)[C@@H](Cc1csc2ccccc12)NC(=O)C1CNC1` [Compound 73], the IC50 stood at 15.9 nM.
In the case of `NCCCC[C@@H](N)C(=O)N[C@H](Cc1csc2ccccc12)C(=O)N[C@H](Cc1c[nH]c2ccccc12)C(=O)N[C@@H](Cc1ccccc1)C(=O)NC1(C(N)=O)CCNCC1` [Compound 4] (H-[dK][dBta][dW]F[Api]-NH2) it was 1120 nM; in that of `NCCCC[C@@H](NC(=O)[C@H](Cc1ccccc1)NC(=O)[C@@H](Cc1c[nH]c2ccccc12)NC(=O)[C@@H](Cc1csc2ccccc12)NC(=O)[C@H](N)CCCNC(N)=O)C(N)=O` [Compound 31] (H-[dCit][dBta][dW]F[dK]-NH2), 20.8 nM; in that of `N=C(N)NCCC[C@@H](NC(=O)[C@H](Cc1ccccc1)NC(=O)[C@@H](Cc1c[nH]c2ccccc12)NC(=O)[C@@H](Cc1csc2ccccc12)NC(=O)C1(N)COC1)C(N)=O` [Compound 64] (H-[Ac4c(3-oxa)][dBta][dW]F[dR]-NH2), 38.1 nM.
The value for `NCCCC[C@H](N)C(=O)N[C@H](Cc1csc2ccccc12)C(=O)N[C@H](Cc1c[nH]c2ccccc12)C(=O)N[C@@H](Cc1ccccc1)C(=O)N[C@H](CCCCN)C(N)=O` [Compound 35] (H-K[dBta][dW]F[dK]-NH2) was 102 nM; that for `CC(C)C[C@@H](N)C(=O)N[C@H](Cc1csc2ccccc12)C(=O)N[C@H](Cc1c[nH]c2ccccc12)C(=O)N[C@@H](Cc1ccccc1)C(=O)N[C@H](CCCCN)C(N)=O` [Compound 44] (H-[dL][dBta][dW]F[dK]-NH2) was 13.5 nM.
In the case of `CCCC[C@H](N)C(=O)N[C@H](Cc1csc2ccccc12)C(=O)N[C@H](Cc1c[nH]c2ccccc12)C(=O)N[C@@H](Cc1ccccc1)C(=O)N[C@H](CCCCN)C(N)=O` [Compound 50] (H-[Nle][dBta][dW]F[dK]-NH2), the IC50 was 67.2 nM.
`N=C(N)NCCC[C@@H](N)C(=O)N[C@H](Cc1csc2ccccc12)C(=O)N[C@H](Cc1c[nH]c2ccccc12)C(=O)N[C@@H](Cc1ccccc1)C(=O)N[C@H](CCCCN)C(N)=O` [Compound 39] (H-[dR][dBta][dW]F[dK]-NH2): the IC50 amounted to 272 nM.
On to `N=C(N)NCCC[C@@H](NC(=O)[C@H](Cc1ccccc1)NC(=O)[C@@H](Cc1c[nH]c2ccccc12)NC(=O)[C@@H](Cc1csc2ccccc12)NC(=O)[C@@H]1CCC[C@@H]1N)C(N)=O` [Compound 61] (X1-[dBta][dW]F[dR]-NH2), for which the half-maximal inhibitory concentration (IC50) came to 20.5 nM.
